From PubChem BioAssay (NCI)
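Growth conditions: 96-well plates. Treatment: test compound, 48 hours, 5 concentrations. Analysis: linear interpolation between bracketing concentrations; unreached endpoints set to highest concentration. GI50: concentration for 50% inhibition of growth. TGI marks complete inhibition of growth.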

How the values were obtained:
Assay in all cases: growth of human tumour cells (NCI), 48 h
[1] = test system: PC-3 prostate
[2] = test system: SF-268 CNS
[3] = test system: SN12C renal
[4] = test system: NCI-H23 lung
[5] = test system: HOP-92 NSCLC
[6] = test system: COLO 205 colon
[7] = test system: SK-OV-3 ovarian
[8] = test system: M14 melanoma
[9] = test system: DU-145 prostate
[10] = test system: A498 renal

Row | SMILES | GI50 [1] [µM] | TGI [1] [µM] | GI50 [2] [µM] | TGI [2] [µM] | GI50 [3] [µM] | TGI [3] [µM] | GI50 [4] [µM] | TGI [4] [µM] | GI50 [5] [µM] | TGI [5] [µM] | GI50 [6] [µM] | TGI [6] [µM] | GI50 [7] [µM] | TGI [7] [µM] | GI50 [8] [µM] | TGI [8] [µM] | GI50 [9] [µM] | TGI [9] [µM] | GI50 [10] [µM] | TGI [10] [µM]
1 | CC1=C(C(=O)Nc2ccc3[nH]ncc3c2)C(c2ccc3ccccc3c2)CC(=O)N1 (centres undefined) | > 25 | > 25 | 11.5 | > 25 | > 25 | > 25 | 19 | > 25 | 0.0408 | 10.9 | 9.96 | > 21.2 | > 25 | > 25 | > 25 | > 25 | > 25 | > 25 | 4.22 | 22
2 | COC(=O)CCCCN=Cc1c(O)c(O)c(C(C)C)c2cc(C)c(-c3c(C)cc4c(C(C)C)c(O)c(O)c(C=NCCCCC(=O)OC)c4c3O)c(O)c12 | 0.787 | > 32.5 | 1.34 | > 32.5 | 1.14 | > 32.5 | 1.07 | 27 | 0.782 | 2.64 | 0.85 | 2.44 | 0.976 | 3.08 | 1.23 | 13.5 | 1.39 | > 32.5 | 1.79 | > 32.5
3 | N#Cc1ccc(C#Cc2ccccc2C#CCCCCO)cc1 | 15.6 | 28.9 | 18.9 | 40.7 | 17.7 | 31.8 | 17.2 | 33.8 | 17.7 | 34.6 | 18.1 | 34.3 | 18.2 | 33.5 | 17.3 | 31.5 | 16 | 29.8 | 13.8 | 27.7
4 | CCCCC(=O)OCC1OC(n2cnc3c(=S)nc[nH]c32)C(OC(=O)CCCC)C1OC(=O)CCCC (centres undefined) | 2.21 | > 100 | 3.96 | > 100 | 2.78 | > 100 | 1.36 | > 100 | 1 | > 84.5 | 1.37 | 5.18 | 0.636 | > 80.3 | 0.779 | 10.7 | 0.636 | > 100 | 9.54 | > 96.1
5 | CCCCC/C(C=C(C#N)C#N)=C/c1ccccc1 | 3.13 | 12.2 | 2.45 | 9.51 | 3.74 | 16.9 | 3.62 | 13.6 | 5.82 | 21.8 | 4.91 | 16.3 | 7.87 | 23.5 | 2.45 | 7.29 | 5.23 | 24.6 | 9.72 | 23.2
6 | Cc1ccc(S(=O)(=O)N(CCOc2ccc(/C(N)=N/Cl)cc2)CCOc2ccc(/C(N)=N\Cl)cc2)cc1 | 33.7 | > 100 | 5.76 | 20 | 5.52 | > 100 | 12 | 40.1 | 17.2 | 89.3 | 11 | 28.8 | 83.3 | > 100 | 35.1 | > 100 | 16.1 | 48 | 52.3 | > 100
7 | CN(C)CCC(=O)N1C/C(=C/c2ccccc2)C(=O)/C(=C\c2ccccc2)C1 |  | 4.2 |  | 9.22 |  | 3.84 |  | 6.76 |  | 16.6 |  | 5.77 |  | 15.2 |  | 6.53 |  | 18.5 |  | 6.75
8 | O=C1CNCCCN2CCN(CCCNCC(=O)Nc3ccc(cc3)S(=O)(=O)c3ccc(cc3)NC(=O)CNCCCN3CCN(CCCNCC(=O)Nc4ccc(cc4)S(=O)(=O)c4ccc(cc4)N1)CC3)CC2 |  | > 100 |  | > 55.4 |  | > 80.9 |  | > 76.9 |  | 60.6 |  | 96.9 |  | > 100 |  | > 100 |  | > 100 |  | 47.1
9 | Cn1c(N2NC(=O)C(N=Nc3ccc(S(N)(=O)=O)cc3)C2=O)nc(-c2ccco2)c(C#N)c1=O (centres undefined) | 23.2 | > 50 | 15.6 | > 50 | > 50 | > 50 | 12.8 | > 50 | 25.5 | > 50 | 3.18 | 11.8 | > 50 | > 50 | 21.9 | > 50 | 14.9 | > 50 | > 50 | > 50
10 | CCNCCNc1cc(-c2ccc(C(=O)OC)cc2)c(C#N)c2nc3ccccc3n12 | 5.28 | > 100 | 2.54 | 16.2 | 2.68 | 8.33 | 3.82 | > 100 | 2.23 | 4.36 | 0.623 | 2.24 | 2 | 4.8 | 1.58 | 3.23 | 2.65 | > 100 | 1.99 | 5.13
11 | CC1=C(CCCNS(C)(=O)=O)C2=C(C)C3(CC3)[C@@](C)(O)C(=O)C2=C1 | 1.68 | > 100 | 0.373 | 14.2 | 1.78 | > 100 | 0.269 | 1.83 | 0.303 | 1.41 | 0.853 | 2.69 | 0.304 | 1.11 | 0.807 | 2.75 | 0.369 | 17.4 | 1.05 | 2.77
12 | O=C(NCCOCCOCCNc1cccc2c1C(=O)N(C1CCCNC1=O)C2=O)c1cc2c(o1)C(=O)c1ccccc1C2=O (centres undefined) | 2.63 | 46 | 2.39 | 6.35 | 1.52 | 2.96 | 0.313 | 1.79 | 3.31 | 13.6 | 2.1 | 4.12 | 2.87 | 7.93 | 0.772 | 2.18 | 1.69 | 3.11 | 1.77 | 3.21
13 | CCOc1cccc(/C=N/NC(=O)c2ccccc2Nc2ccnc(C(F)(F)F)c2)c1O | 0.428 | > 39.1 | 0.599 | > 100 | 0.989 | > 94.9 | 1.08 | > 64.5 | 0.246 | 19.7 | 0.347 | 36.9 | 0.676 | 40.5 | 0.661 | 2.91 | 0.63 | > 100 | 20.1 | > 74.8
14 | COc1ccc(/C(=C2\O[C@@H]([C@H]3COC(C)(C)O3)[C@H]3OC(C)(C)O[C@@H]23)c2cc(OC)c(OC)c(OC)c2)cc1O | 5.11 | > 100 | 6.95 | 31.4 | 5.62 | > 100 | 7.96 | 46 | 5.45 | 31.8 | 17.4 | > 100 | 4.11 | 18.5 | 2.4 | 5.9 | 3.29 | 13.3 | 35.7 | > 100
15 | O=[N+]([O-])/C=C\c1ccc(Cl)c(Cl)c1 | 1.24 | 3.93 | 2.42 | 6.97 | 4.31 | 62.5 | 1.63 | 3.31 | 1.87 | 5.01 | 3.48 | 12.8 | 14.4 | 27.4 | 1.63 | 3.29 | 1.81 | 4.15 | 0.667 | 3.81
16 | O=C(Nc1ccc(N2CCNCC2)cc1)c1[nH]ncc1Nc1cc(Oc2ccccc2)ncn1 | 1.47 | 3.2 | 3.57 | 14.4 | 3.19 | 9.31 | 2.12 | 7.85 | 2.35 | 5.32 | 1.19 | 2.78 | 1.99 | 4.84 | 1.55 | 3.19 | 3.03 | 11.2 | 1.96 | 4.82
17 | CC1CCC2(C(=O)O)CCC3(C)C(=CCC4C5(C)CC(O)C(O)C(C)(CO)C5C(O)CC43C)C2C1C (centres undefined) |  | > 100 |  | > 87.2 |  | 25.8 |  | > 100 |  | 46.3 |  | > 100 |  | > 100 |  | > 100 |  | > 100 |  | 48
18 | Cn1cc(-c2cnc3ccc(NC(=O)Nc4ccc(F)c(Br)c4)cc3n2)cn1 | 1.44 | 3.62 | 2.38 | 7 | 1.87 | 4.79 | 1.75 | 3.91 | 1.6 | 4.41 | 1.59 | 3.24 | 2.24 | 5.99 | 1.57 | 3.14 | 1.67 | 3.96 | 1.51 | 4.04
19 | Cc1ccc(CS/C(=C\c2ccc([N+](=O)[O-])cc2)C(=O)c2ccc(F)cc2)cc1 | 2.36 | 6.2 | 4.13 | 20.7 | 2.98 | 9.48 | 4.78 | 41 | 14.1 | 41.3 | 3.72 | 16.6 | 17.7 | > 100 | 3.07 | 15.6 | 21.1 | > 100 | 15.6 | 36
20 | O=C(O)CCCCC(CCSCc1ccccc1)SCc1ccccc1 (centres undefined) | 49.1 | > 100 | > 67.2 | > 100 | 41.4 | > 100 | 33.5 | > 100 | 29.3 | > 81.6 | > 92.3 | > 100 | > 88.7 | > 100 | 55.4 | > 100 | > 71.2 | > 100 | > 38.9 | > 96.7
21 | CSc1cc(N=Nc2nc3ccccc3s2)c2ccccc2c1O | 13.4 | > 50 | 7.87 | 17.4 | 6.1 | 12.9 | 10.5 | 27.9 | 10.1 | > 50 | 14.2 | > 50 | 10.7 | 28.7 | 9.55 | 21.6 | 9.16 | 16.9 | 23.3 | 45.5
22 | N#C/C(=C1C=C/C(=N/O)C(Br)=C/1)c1ccccc1 | 0.568 | 6.33 | 2.18 | 11.7 | 3.68 | 16.8 | 5.26 | 96.8 | 0.385 | 3.77 | 6.89 | 54.7 | 4.43 | 71.6 | 3.79 | 20 | 3.24 | 9.69 | 2.57 | 16.7
23 | Cc1cc(I)cc(CNCCCN2CCSCC2)c1O | 17.7 | 36.3 | 17.2 | 36.4 | 41.4 | > 100 | 20.9 | 63.7 | 7.57 | 22.3 | 15 | 30.8 | 17.9 | 36.4 | 13.9 | 28.4 | 20.3 | 42.7 | 13.7 | 28.5
24 | Nc1ccn(C2O[C@H](CO)[C@@H](O)[C@@H]2O)c(=O)n1 (some centres undefined) |  | > 100 |  | > 100 |  | > 100 | 30.4 | > 100 | 33.8 | > 100 | 51.8 | > 100 |  | > 100 | 22.3 | > 100 |  | > 100 |  | > 100
25 | O=c1oc2ccc(F)cc2c(=O)n1-c1ccc(F)cc1F | 2.81 | 10.1 | 3.34 | 52.1 | 2.72 | 13.7 | 2.96 | 19.7 | 1.6 | 4.68 | 3.56 | 12.5 | 1.72 | 4.6 | 2.47 | 8.04 | 4.18 | > 100 | 1.62 | 3.91
26 | O=NN(Cc1ccc(Cl)cc1)C(C(=O)O)c1ccccc1 (centres undefined) |  | > 100 |  | > 100 |  | > 100 |  | > 100 |  | > 100 |  | > 100 |  | > 100 |  | > 100 |  | > 100 |  | > 100
